Measurements: patent US8802678B2, “Carbonylated (aza) cyclohexanes as dopamine D3 receptor ligands” (Bioprojet, priority 2006, dated 2014)

SMILES	melting point [°C]
O=C(N[C@H]1CC[C@H](CCN2CCN(c3cccc(C(F)(F)F)c3F)CC2)CC1)C1=CCCC1 [Example 458, Cyclopent-1-enecarboxylic acid (4-{2-[4-(2-fluoro-3-trifluoro-methylphenyl)piperazin-1-yl]ethyl}cyclohexyl) amide]	190
NC(=O)CCC(=O)N[C@H]1CC[C@H](CCN2CCN(c3cccc(C(F)(F)F)c3F)CC2)CC1 [Example 459, N-(4-{2-[4-(2-Fluoro-3-trifluoro-methylphenyl)piperazin-1-yl]ethyl}cyclohexyl)succinamide]	244
N#CCCC(F)(F)C(=O)N[C@H]1CC[C@H](CCN2CCN(c3cccc(C(F)(F)F)c3F)CC2)CC1 [Example 460, 4-Cyano-2,2-difluoro-N-(4-{2-[4-(2-fluoro-3-trifluoromethyl-phenyl)piperazin-1-yl]ethyl}cyclohexyl)butanamide]	151
CS(=O)(=O)c1cccc(N2CCN(CC[C@H]3CC[C@H](NC(=O)C(F)(F)F)CC3)CC2)c1 [Example 461, 2,2,2-Trifluoro-N-(4-{2-[4-(3-methanesulfonylphenyl)piperazin-1-yl]ethyl}cyclohexyl)acetamide]	132
N#CCCCC(=O)NC1CCC(CCN2CCN(c3cccc(-c4ccccc4)c3)CC2)CC1 (centres unmarked) [Example 462, N-{4-[2-(4-Biphenyl-3-ylpiperazin-1-yl)ethyl]cyclohexyl}-4-cyanobutanamide]	119
O=C(N[C@H]1CC[C@H](CCN2CCN(c3cc(F)c(F)c(F)c3)CC2)CC1)C1=CCCC1 [Example 463, Cyclopent-1-enecarboxylic acid (4-{2-[4-(3,4,5-trifluorophenyl)piperazin-1-yl]ethyl}cyclohexyl) amide]	208
CC(=O)CN1CCC(CCN2CCN(c3ccc(C)c(C#N)c3)CC2)CC1 [Example 464, 2-Methyl-5-(4-{2-[1-(2-oxopropyl)piperidin-4-yl]ethyl}piperazin-1-yl)benzonitrile]	107
CCOCC(=O)N[C@H]1CC[C@H](CCN2CCN(c3cc(F)c(F)c(F)c3)CC2)CC1 [Example 465, 2-Ethoxy-N-(4-{2-[4-(3,4,5-trifluorophenyl)piperazin-1-yl]ethyl}cyclohexyl)acetamide]	133

Now from value to compound:

melting point [°C]	SMILES
224	O=C(N[C@H]1CC[C@H](CCN2CCN(c3cc(F)c(F)c(F)c3)CC2)CC1)C1CC=CC1 [Example 466, Cyclopent-3-enecarboxylic acid (4-{2-[4-(3,4,5-trifluorophenyl)piperazin-1-yl]ethyl}cyclohexyl) amide]
189	Cc1ccc(N2CCN(CC[C@H]3CC[C@H](NC(=O)CCCC#N)CC3)CC2)cc1 [Example 467, 4-Cyano-N-{4-[2-(4-p-tolylpiperazin-1-yl)ethyl]cyclohexyl}butanamide]
205	CS(=O)(=O)c1cccc(N2CCN(CC[C@H]3CC[C@H](NC(=O)CCC(F)(F)F)CC3)CC2)c1 [Example 469, 4,4,4-Trifluoro-N-(4-{2-[4-(3-methanesulfonylphenyl)piperazin-1-yl]ethyl}cyclohexyl)butanamide]
175	COCCCC(=O)N[C@H]1CC[C@H](CCN2CCN(c3cccc(C(F)(F)F)c3F)CC2)CC1 [Example 470, N-(4-{2-[4-(2-Fluoro-3-trifluoromethylphenyl)piperazin-1-yl]ethyl}cyclohexyl)-4-methoxybutanamide]
171	N#CCCCC(=O)N[C@H]1CC[C@H](CCN2CCN(c3ccc(Cl)cc3F)CC2)CC1 [Example 471, N-(4-{2-[4-(4-Chloro-2-fluorophenyl)piperazin-1-yl]ethyl}cyclohexyl)-4-cyanobutanamide]
188	N#CCC(=O)N[C@H]1CC[C@H](CCN2CCN(c3cc(F)c(F)cc3F)CC2)CC1 [Example 472, 2-Cyano-N-(4-{2-[4-(2,4,5-trifluorophenyl)piperazin-1-yl]ethyl}cyclohexyl)acetamide]
